Measured values from patent US20100197745A1, “GAMMA-GLUTAMYL TRANSPEPTIDASE INHIBITORS AND METHODS OF USE” (priority 2008, published 2010).
“Also recorded” adds a separate entry of the source. Where two headings read alike, the source gives them in different places. Values belong to the compound of their own block, whether it stands above or below them. Residues, ends and D or L forms follow the SMILES beside them.

How the values were obtained:
[1] = molecular target: T1, GGT isolated from human kidney (Homo sapiens, UniProt P19440); assay: GGT transpeptidation kinetic assay (GpNA / glycyl-glycine) with GGT isolated from human kidney; type: biochemical; conditions: for Michaelis constant of the substrate (Kglygly, KGpNA): human kidney GGT
T1 construct: GGT was isolated from human kidney; tissue National Disease Research Interchange, Philadelphia, PA; host or cells: human kidney, Triton X-100 extract of microsomes
T1 sequence (P19440 1-380 limits assumed): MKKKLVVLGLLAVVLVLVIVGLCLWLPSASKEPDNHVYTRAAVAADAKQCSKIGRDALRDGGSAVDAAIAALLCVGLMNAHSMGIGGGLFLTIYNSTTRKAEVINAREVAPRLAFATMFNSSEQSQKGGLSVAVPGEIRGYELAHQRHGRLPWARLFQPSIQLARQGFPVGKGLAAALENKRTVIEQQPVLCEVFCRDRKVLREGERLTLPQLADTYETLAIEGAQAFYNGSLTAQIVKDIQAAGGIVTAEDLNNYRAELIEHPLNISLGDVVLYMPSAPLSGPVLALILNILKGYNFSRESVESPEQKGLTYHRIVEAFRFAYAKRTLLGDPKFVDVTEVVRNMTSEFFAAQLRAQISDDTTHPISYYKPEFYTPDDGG
T1 sequence (P19440 381-569 limits assumed): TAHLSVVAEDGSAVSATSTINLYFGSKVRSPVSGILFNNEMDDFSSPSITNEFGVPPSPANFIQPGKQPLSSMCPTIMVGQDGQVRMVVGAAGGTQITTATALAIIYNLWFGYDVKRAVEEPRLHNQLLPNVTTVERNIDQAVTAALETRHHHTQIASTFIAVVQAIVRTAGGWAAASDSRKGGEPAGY
Experimental: (§1) An assay method was developed to screen for inhibitors of GGT. The assays were conducted in 96-well plates. The final volume in each well was 100 μL. The assay buffer contained: 100 mM Na2HPO4 pH 7.4, with 3.2 mM KCI, 1.8 mM KH2PO4, and 27.5 mM NaCl. Each reaction contained 1 mM L-glutamic acid γ-4-nitroanilide HCI (GpNA) and 40 mM glycyl-glycine (Gly-Gly)(19). GGT is expressed on the cell surface and the assay was initiated by addition of 10^4 786-O cells (ATCC CRL-1932, a GGT-positive human renal cell adenocarcinoma line).
(§2) GGT was isolated from human kidney (National Disease Research Interchange, Philadelphia, PA), male Sprague-Dawley rat kidney and female Balb/c mouse kidney. Tissue was homogenized in 4 volumes of 25 mM Tris pH 7.5, containing 0.33 M sucrose, 0.2 mM EDTA, 1 μM leupeptin and 1.4 μg/ml aprotinin. A 9000 g supernatant was spun at 100,000 g for 1 h. The microsomal pellet was homogenized in 25 mM Tris pH 7.35, 0.5% Triton X-100, 1 μM leupeptin, 1.4 μg/ml aprotinin then centrifuged again at 100,000 g for 1 h. The supernatant was assayed for GGT activity, aliquoted, and stored at −80° C. until further use. All solutions were maintained at 4° C. throughout the isolation. The specific activities of GGT were 3.4, 7.4, and 1.5 units/mg protein for human, rat, and mouse preparations, respectively. Prior to use in the GGT assay, the enzyme was diluted in phosphate-buffered saline (PBS) containing 0.025% Triton X-100 and 0.19 m Units of enzyme were used per assay unless otherwise indicated.
(§3) The concentrations of the substrate GpNA and the acceptor Gly-Gly were varied as indicated. Purified GGT was added to initiate the assay. The reaction was monitored as described for the high throughput screening.
Initial velocity data were first analyzed graphically using double-reciprocal plots of initial velocities versus substrate concentration and suitable secondary plots.
Data for competitive and uncompetitive inhibition were fitted using Equations 1 and 2.

[2] = molecular target: T2, human GGT expressed in mouse NIH3T3 fibroblasts (Homo sapiens, UniProt P19440); assay: Inhibition of human GGT expressed in mouse NIH3T3 fibroblasts; type: cell-based; conditions: NIH3T3 transfected with human GGT cDNA (FIG. 5B)
T2 construct: expressed in transfected cells; host or cells: NIH/3T3 mouse fibroblasts, G418-selected
T2 sequence (P19440 whole entry): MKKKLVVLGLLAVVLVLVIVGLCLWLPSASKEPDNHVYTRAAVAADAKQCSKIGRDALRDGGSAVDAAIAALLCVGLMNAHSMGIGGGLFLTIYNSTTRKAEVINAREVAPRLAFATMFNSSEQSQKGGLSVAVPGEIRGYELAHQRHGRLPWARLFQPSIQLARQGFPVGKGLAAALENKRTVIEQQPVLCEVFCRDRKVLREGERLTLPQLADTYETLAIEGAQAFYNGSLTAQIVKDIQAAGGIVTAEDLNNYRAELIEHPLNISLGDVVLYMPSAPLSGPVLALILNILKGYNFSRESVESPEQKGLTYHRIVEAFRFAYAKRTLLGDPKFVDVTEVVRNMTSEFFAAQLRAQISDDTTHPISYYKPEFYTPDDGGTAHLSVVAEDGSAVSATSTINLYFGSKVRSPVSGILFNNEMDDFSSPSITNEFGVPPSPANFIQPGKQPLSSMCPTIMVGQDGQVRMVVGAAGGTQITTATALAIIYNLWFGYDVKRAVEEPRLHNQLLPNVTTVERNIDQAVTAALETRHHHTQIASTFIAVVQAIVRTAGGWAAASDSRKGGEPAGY
Experimental: as §1
(§4) LLC-PKI (ATCC CRL 1392), a pig kidney cell line, NRK-52E (ATCC CRL-1571), a normal rat kidney cell line, LLC-MK2 (ATCC CCL-7), a normal kidney monkey cell line, and 786-O cells were grown in complete Dulbecco's Modified Eagle's Medium (DMEM) supplemented with 5% FBS (Hyclone, Logan, Utah), and penicillin/streptomycin (50 U/mL, 50 μg/mL) (Invitrogen, Carlsbad, Calif.). NIH/3T3 cells transfected with cDNA encoding human GGT were described previously and were grown in DMEM/F12 containing 200 μg/mL of G418 (6). HK-2 (ATCC CRL-2190), a human cell line derived from immortalized normal proximal tubule cells, were grown in keratinocyte serum-free media (K-SFM) from ATCC (Manassas, Va.). The cells were trypsinized off the plates and suspended in PBS for the GGT assay.

[3] = molecular target: T3, GGT isolated from rat kidney (Rattus norvegicus, UniProt P07314); assay: Inhibition of GGT isolated from rat kidney; type: biochemical; conditions: rat kidney GGT (FIG. 5A)
T3 construct: male Sprague-Dawley rat kidney; from tissue; host or cells: male Sprague-Dawley rat kidney, Triton X-100 extract of microsomes
Experimental: as §2, §3

GGT in NRK-52E cells = molecular target: T4, GGT in NRK-52E cells (Rattus norvegicus, UniProt P07314); assay: Inhibition of cell-surface GGT in rat kidney cell line; type: cell-based; conditions: NRK-52E (FIG. 5B)
T4 construct: NRK-52E (ATCC CRL-1571), a normal rat kidney cell line; host or cells: NRK-52E rat kidney cells
Experimental: as §1, §4

human kidney GGT = molecular target: T5, human kidney GGT (Homo sapiens, UniProt P19440); assay: Glutathione degradation by human kidney GGT; type: biochemical
T5 construct: GGT was isolated from human kidney; tissue National Disease Research Interchange, Philadelphia, PA; host or cells: human kidney, Triton X-100 extract of microsomes
T5 sequence (P19440 1-380 limits assumed): as the sequence (P19440 1-380 limits assumed) above
T5 sequence (P19440 381-569 limits assumed): as the sequence (P19440 381-569 limits assumed) above
Experimental: (§5) An incubation mixture contained 1 mM glutathione, 40 mM glycyl-glycine, and inhibitor in the GGT assay buffer. Reactions were initiated with the addition of 1.9 mU of GGT and incubated at 37° C. The final volume of the reaction was 100 μL. Aliquots of the reaction mixture were removed at the specified time points, immediately acidified with an equal volume of cold 4.31% 5-sulfosalicylic acid, and maintained at 4° C. until glutathione concentration was determined by the method of Tietze (21).

GGT from mouse kidney = molecular target: T6, GGT from mouse kidney (Mus musculus, UniProt Q60928); assay: Inhibition of GGT isolated from mouse kidney; type: biochemical; conditions: mouse kidney GGT (FIG. 5A)
T6 construct: female Balb/c mouse kidney; from tissue; host or cells: female Balb/c mouse kidney, Triton X-100 extract of microsomes
T6 sequence (Q60928 whole entry): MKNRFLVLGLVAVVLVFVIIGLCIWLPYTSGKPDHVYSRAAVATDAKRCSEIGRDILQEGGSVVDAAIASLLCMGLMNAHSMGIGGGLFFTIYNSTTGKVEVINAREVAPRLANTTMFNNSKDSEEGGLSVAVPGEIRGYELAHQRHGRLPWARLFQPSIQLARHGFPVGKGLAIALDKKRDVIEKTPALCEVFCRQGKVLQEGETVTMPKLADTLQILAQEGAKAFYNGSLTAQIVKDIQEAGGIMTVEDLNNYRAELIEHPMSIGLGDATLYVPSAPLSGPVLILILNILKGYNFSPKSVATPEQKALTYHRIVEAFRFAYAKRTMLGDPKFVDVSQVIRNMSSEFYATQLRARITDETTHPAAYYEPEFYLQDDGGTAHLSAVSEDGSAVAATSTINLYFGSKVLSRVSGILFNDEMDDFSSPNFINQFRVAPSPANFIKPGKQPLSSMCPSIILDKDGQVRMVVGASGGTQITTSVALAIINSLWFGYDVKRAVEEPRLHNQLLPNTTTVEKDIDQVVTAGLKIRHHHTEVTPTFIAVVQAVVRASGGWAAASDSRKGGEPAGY
Experimental: as §2, §3

GGT in LLC-MK2 cells = assay: Inhibition of cell-surface GGT in monkey kidney cell line; type: cell-based; conditions: LLC-MK2 (FIG. 5B)
Experimental: as §1, §4

[4] = molecular target: T7, human GGT expressed in Pichia pastoris (Homo sapiens, UniProt P19440); assay: GGT kinetic assay with purified human GGT expressed in Pichia pastoris; type: biochemical
T7 construct: The soluble domain of human GGT (amino acids 28-569) was amplified by PCR; His6 (TEV protease-cleavable) (N, cleaved yes); made in house; host or cells: Pichia pastoris strain X-33 (pPICZαA, plasmid pMW-102), secreted
T7 sequence (P19440 28-569): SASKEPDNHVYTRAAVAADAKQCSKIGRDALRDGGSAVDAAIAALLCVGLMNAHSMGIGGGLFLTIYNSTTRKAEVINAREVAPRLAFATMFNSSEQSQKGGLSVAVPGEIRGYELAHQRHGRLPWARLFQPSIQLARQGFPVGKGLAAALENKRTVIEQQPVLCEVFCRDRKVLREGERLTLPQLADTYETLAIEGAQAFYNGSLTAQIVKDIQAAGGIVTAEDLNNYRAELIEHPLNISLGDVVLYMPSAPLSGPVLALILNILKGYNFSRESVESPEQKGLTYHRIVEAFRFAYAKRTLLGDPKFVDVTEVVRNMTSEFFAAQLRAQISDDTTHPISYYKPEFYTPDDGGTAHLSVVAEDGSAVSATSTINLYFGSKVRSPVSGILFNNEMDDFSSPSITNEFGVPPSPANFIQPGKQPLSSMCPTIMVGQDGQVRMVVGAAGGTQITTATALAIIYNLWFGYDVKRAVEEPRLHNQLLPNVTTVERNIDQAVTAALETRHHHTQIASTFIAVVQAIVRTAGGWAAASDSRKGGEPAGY
Source text: The soluble domain of human GGT (amino acids 28-569) was amplified by PCR. The forward primer introduced a EcoRI restriction site and a TEV protease-cleavable N-terminal His6 tag, while the reverse primer introduced a NotI restriction site after the stop codon of genomic GGT. The PCR product was digested with EcoRI and Not I and inserted into the corresponding sites of pPICZαA (Invitrogen), generating plasmid pMW-102. This construct was amplified in E. coli DH5α cells. The fidelity of the recombinant ORF was verified by sequencing (Oklahoma Medical Research Foundation's DNA Sequencing Core Facility, Oklahoma City, Okla.). The SacI-linearized plasmid, pMW-102, was purified and transformed into wild-type Pichia pastoris strain X-33, selected and induced as recommended by Invitrogen. Secreted, recombinant, His6-tagged, human GGT was collected from the media with a Ni-NTA column. The hexahistidine tag was cleaved with His6-tagged TEV protease. […]
The concentrations of the substrate GpNA and the acceptor Gly-Gly were varied as indicated. […] The reaction was monitored as described for the high throughput screening.
Initial velocity data were first analyzed graphically using double-reciprocal plots of initial velocities versus substrate concentration and suitable secondary plots. […]

GGT in LLC-PK1 cells = molecular target: T8, GGT in LLC-PK1 cells (Sus scrofa, UniProt P20735); assay: Inhibition of cell-surface GGT in pig kidney cell line; type: cell-based; conditions: LLC-PK1 (FIG. 5B)
T8 construct: LLC-PKI (ATCC CRL 1392), a pig kidney cell line; host or cells: LLC-PK1 pig kidney cells
T8 sequence (P20735 whole entry): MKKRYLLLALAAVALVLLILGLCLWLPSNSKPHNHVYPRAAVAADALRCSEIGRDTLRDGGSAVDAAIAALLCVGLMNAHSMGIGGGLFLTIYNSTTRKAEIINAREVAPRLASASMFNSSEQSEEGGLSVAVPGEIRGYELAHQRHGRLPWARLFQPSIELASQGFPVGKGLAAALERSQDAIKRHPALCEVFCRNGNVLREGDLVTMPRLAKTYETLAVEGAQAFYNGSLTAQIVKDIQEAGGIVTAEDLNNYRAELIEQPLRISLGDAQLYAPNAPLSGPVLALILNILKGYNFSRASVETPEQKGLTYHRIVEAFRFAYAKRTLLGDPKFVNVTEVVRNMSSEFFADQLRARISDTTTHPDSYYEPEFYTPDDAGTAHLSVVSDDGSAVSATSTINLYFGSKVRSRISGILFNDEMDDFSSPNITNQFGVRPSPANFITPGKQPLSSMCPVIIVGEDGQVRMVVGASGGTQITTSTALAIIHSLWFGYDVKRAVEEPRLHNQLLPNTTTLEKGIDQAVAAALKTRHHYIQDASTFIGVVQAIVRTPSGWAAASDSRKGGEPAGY
Experimental: as §1, §4

786-O cells = assay: Cytotoxicity assay (MTT, 72 hr) in dividing 786-O cells; type: cell-based
Experimental: 786-O (ATCC CRL-1932), a human renal cell adenocarcinoma line, was plated in DMEM supplemented with 5% FBS and penicillin/streptomycin (50 U/mL, 50 ug/mL) at 10^3 cells per well in 96-well plates. The next day the medium was changed to fresh DMEM containing FBS, antibiotics and the test compound. Equivalent concentrations of DMSO were added to control wells. Cell viability was determined by the MTT assay 72 hr after the addition of the test compound (20).
A two-tailed t-test was used to detect significant differences between OU749 inhibition of human GGT and inhibition of GGT from other species.

[5] = molecular target: T9, GGT in 786-O and HK-2 cells (Homo sapiens, UniProt P19440); assay: Inhibition of cell-surface GGT in human kidney cell lines; type: cell-based; conditions: 786-O and HK-2 (FIG. 5B)
T9 construct: GGT is expressed on the cell surface; CRL-2190 (HK-2); host or cells: 786-O human renal adenocarcinoma cells; HK-2 human proximal tubule cells
T9 sequence (P19440 whole entry): as the sequence (P19440 whole entry) above
Experimental: as §1, §4

GGT from rat kidney = molecular target: T10, GGT from rat kidney (Rattus norvegicus, UniProt P07314); assay: Glutathione degradation by rat kidney GGT; type: biochemical; conditions: 1 mM glutathione, 40 mM glycylglycine (FIG. 6B)
T10 construct: male Sprague-Dawley rat kidney; from tissue; host or cells: male Sprague-Dawley rat kidney, Triton X-100 extract of microsomes
T10 sequence (P07314 whole entry): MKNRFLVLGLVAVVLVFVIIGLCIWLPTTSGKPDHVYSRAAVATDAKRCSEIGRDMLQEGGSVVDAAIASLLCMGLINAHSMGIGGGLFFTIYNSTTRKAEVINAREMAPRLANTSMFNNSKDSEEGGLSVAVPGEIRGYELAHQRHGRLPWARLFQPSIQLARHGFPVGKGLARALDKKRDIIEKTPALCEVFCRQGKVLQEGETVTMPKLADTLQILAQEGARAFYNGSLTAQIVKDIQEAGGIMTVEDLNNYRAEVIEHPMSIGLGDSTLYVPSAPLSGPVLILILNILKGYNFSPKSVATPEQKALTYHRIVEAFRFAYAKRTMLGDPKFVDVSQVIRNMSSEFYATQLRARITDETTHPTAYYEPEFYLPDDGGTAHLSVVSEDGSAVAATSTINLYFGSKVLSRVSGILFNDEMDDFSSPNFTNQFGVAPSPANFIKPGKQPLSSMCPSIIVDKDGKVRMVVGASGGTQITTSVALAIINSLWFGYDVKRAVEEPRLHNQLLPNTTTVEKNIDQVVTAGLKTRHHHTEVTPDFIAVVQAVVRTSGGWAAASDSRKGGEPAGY
Experimental: as §5

[6] = tested on: metastatic melanoma to the liver; conditions: acivicin used to deplete tumor GSH in combination with aggressive therapy (ref. 4); cited from earlier work
[7] = appKi obtained by varying GpNA, glygly fixed at 40 mM, uncompetitive, read-out: Inhibition of Transpeptidation (Alpha Ki)

- Michaelis constant of the substrate (Kglygly, KGpNA) [1]: 1.07 ± 0.04 mM
Structure (SMILES): N[C@@H](CCC(=O)Nc1ccc([N+](=O)[O-])cc1)C(=O)O [GpNA, L-glutamic acid γ-4-nitroanilide HCI, reference compound]

- Ki [1, 7]: 114 ± 8.4 µM
Structure (SMILES): COc1ccc(Cc2nnc(NS(=O)(=O)c3ccc([N+](=O)[O-])cc3)s2)cc1 [Compound 7]

- Ki [1, 7]: 75.9 ± 1.7 µM
Structure (SMILES): O=S(=O)(Nc1nnc(Cc2ccccc2)s1)c1ccc(Cl)cc1 [Compound 4]

- Michaelis constant of the substrate (Kglygly, KGpNA) [1]: 11.4 ± 1.2 mM
Structure (SMILES): NCC(=O)NCC(=O)O [glygly, glycyl-glycine, reference compound] (H-Gly-Gly-OH)

Structure (SMILES): COc1ccc(Cc2nnc(NS(=O)(=O)c3ccccc3)s2)cc1 [Compound 3, N-[5-(4-methoxybenzyl)-1,3,4-thiadiazol-2-yl]benzenesulfonamide]
- inhibition of human GGT expressed in mouse cells [2]: inhibited by compound 3 to the same extent as human GGT expressed in other human cells
- fold less potent than against GGT isolated from human kidney [3]: 7 fold
- inhibition of GGT in rat kidney cell line (GGT in NRK-52E cells): only weakly inhibited
- inhibition of cleavage of glutathione (human kidney GGT; 1 mM glutathione, 40 mM glycylglycine, 62.5-500 uM compound (FIG. 6A)): inhibited the cleavage of glutathione in a dose-dependent manner; also recorded: inhibited glutathione breakdown by human GGT
- inhibition of cleavage of oxidized glutathione (GSSG) (human kidney GGT; human GGT, data not shown): inhibited the cleavage of oxidized glutathione
- fold less potent than against GGT isolated from human kidney (GGT from mouse kidney): 10 fold
- inhibition of GGT in monkey kidney cell line (GGT in LLC-MK2 cells): only weakly inhibited
- inhibition of GGT isolated from human kidney ([1]; 0-125 μM, 40 mM glycylglycine (FIG. 3)): inhibited GGT isolated from human kidney in a dose-dependent manner
- type of inhibition with respect to GpNA ([1]; GpNA varied, glygly 40 mM): uncompetitive
- Ki [1, 7]: 73.8 ± 2.5 µM
- Ki ([1]; fit of data of FIGS. 4A-D to the equation for noncompetitive inhibition, read-out: Ki binding to the E form of the enzyme): > 200 µM
- type of inhibition with respect to glygly ([1]; glygly varied, GpNA 3 mM): competitive
- Ki ([1]; glygly varied, GpNA maintained at 3 mM, read-out: Ki, competitive with respect to glygly (intrinsic value)): 17.6 ± 3.8 µM
- weaker binding to the E form ([1]; relative to binding in the presence of the γ-glutamyl moiety): > 10 fold
- Ki ([4]; GpNA varied, 40 mM glycylglycine, read-out: appKi obtained varying GpNA): 58.2 ± 1.6 µM
- Ki ([4]; glygly varied, 3 mM GpNA, read-out: appKi as a competitive inhibitor of glygly): 25 ± 2 µM
- inhibition of GGT in pig kidney cell line (GGT in LLC-PK1 cells): not inhibited
- fold less toxic than acivicin (786-O cells; 786-O cells in log growth): more than 150 fold
- toxicity relative to acivicin (786-O cells; 786-O cells in log growth): at least an order of magnitude less toxic than acivicin
- fold less toxic than acivicin (786-O cells; 786-O cells in log growth, listed as compound 3): 150 fold
- LD50 (786-O cells; dividing 786-O cells, 3 days with test compound, MTT): 128 µM
- inhibition of GGT in human kidney cell lines [5]: dose-dependent inhibition
- inhibition of degradation of glutathione (GGT from rat kidney): unable to inhibit; also recorded: did not inhibit

- Ki [1, 7]: 1110 µM
Structure (SMILES): COc1ccc(S(=O)(=O)Nc2nnc(Cc3ccc(OC)c(OC)c3)s2)cc1 [Compound 9]

Structure (SMILES): N[C@H](C(=O)O)[C@@H]1CC(Cl)=NO1 [Acivicin, acivicin, reference compound]
- LD50 (786-O cells; human, 72 h): 0.81 µM
- complete cure of metastatic melanoma to the liver, share of test animals [6]: 90%
